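Grown in 96-well plates, cells were treated for 48 hours with each compound at five concentrations. Insufficient inhibition: endpoint recorded as highest concentration tested. Abbreviation: GI50, concentration required for 50% inhibition of growth. TGI is the concentration that stops growth completely.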
How the values were obtained:
Assay in all cases: growth of human tumour cells (NCI), 48 h
CAKI-1 renal = system: CAKI-1 renal
CCRF-CEM leukemia = system: CCRF-CEM leukemia
HCC-2998 colon = system: HCC-2998 colon
HOP-92 NSCLC = system: HOP-92 NSCLC
NCI-H522 lung = system: NCI-H522 lung
OVCAR-5 ovarian = system: OVCAR-5 ovarian
SF-295 CNS = system: SF-295 CNS
SK-MEL-2 melanoma = system: SK-MEL-2 melanoma
SN12C renal = system: SN12C renal
HS 578T breast = system: HS 578T breast

SMILES	TGI (CAKI-1 renal)	TGI (CCRF-CEM leukemia)	TGI (HCC-2998 colon)	TGI (HOP-92 NSCLC)	TGI (NCI-H522 lung)	TGI (OVCAR-5 ovarian)	TGI (SF-295 CNS)	TGI (SK-MEL-2 melanoma)	TGI (SN12C renal)	GI50 (CAKI-1 renal)	GI50 (CCRF-CEM leukemia)	GI50 (HOP-92 NSCLC)	GI50 (HS 578T breast)	TGI (HS 578T breast)	GI50 (NCI-H522 lung)	GI50 (OVCAR-5 ovarian)	GI50 (SF-295 CNS)	GI50 (SK-MEL-2 melanoma)	GI50 (SN12C renal)	GI50 (HCC-2998 colon)
O=c1nc(NC(c2ccccc2)(c2ccccc2)c2ccccc2)ccn1CCNCCn1ccc(NC(c2ccccc2)(c2ccccc2)c2ccccc2)nc1=O	> 100 µM	> 100 µM	17.1 µM	24.4 µM	21.5 µM	> 100 µM	27.3 µM	9.32 µM	44.1 µM											
Cc1ccc([N+](=O)[O-])cc1NC(=O)c1cccc([N+](=O)[O-])c1O	89.7 µM	83.7 µM			26.6 µM		63.3 µM	33.9 µM	> 100 µM											
COC(=O)NC12CC3CC(CC(F)(C3)C1)C2		> 100 µM	> 100 µM	> 100 µM	> 100 µM	> 100 µM		> 100 µM												
O=S(=O)(c1cccc2c(Cl)cccc12)N1CCCNCC1	32.6 µM	28.4 µM		25.8 µM	37.1 µM	23.6 µM	34.5 µM	34.3 µM	24.6 µM	17.3 µM	15.1 µM	11 µM	21.4 µM	45.4 µM	19.7 µM	11.5 µM	17.7 µM	17.6 µM	12.2 µM	
CN(C)C=[N+]=[N-]	> 100 µM		> 100 µM	> 100 µM	> 100 µM	> 100 µM	> 100 µM	> 100 µM	> 100 µM											
CC(=O)OCC(=O)[C@@]12OC(C)(C)O[C@@H]1C[C@H]1[C@@H]3CC=C4C[C@@H](O)CC[C@]4(C)[C@H]3CC[C@@]12C	> 100 µM	> 100 µM			> 100 µM	> 100 µM	> 100 µM	> 100 µM	> 100 µM					63.4 µM						
O=C(c1ccccc1)[C@@H]1C[C@H](Sc2ccccc2)c2cc(Cl)ccc2N1	> 100 µM		51.8 µM		48.6 µM	> 100 µM	92.5 µM	97.6 µM	33.7 µM											
COc1cc2c(cc1OC)[C@H]1C(COC(=O)c3ccccc3)CSC(=Nc3ccccc3)N1CC2 (some centres undefined)	> 100 µM	> 100 µM	> 100 µM	> 100 µM	6.08 µM	> 100 µM	> 100 µM	> 100 µM	> 100 µM											
c1ccc2cc3[s+]snc3cc2c1	> 100 µM	> 100 µM	> 100 µM		> 100 µM	> 100 µM	> 100 µM	> 100 µM	> 100 µM											
O=C1C2C(c3ccccc3)NC(c3ccccc3)C1C(c1ccccc1)NC2c1ccccc1 (centres undefined)	> 100 µM	> 100 µM		> 100 µM	> 100 µM	> 100 µM	> 100 µM	> 100 µM	> 100 µM					> 100 µM						
Cc1[nH]c(=O)n2c(C)nnc2c1C(=O)Nc1cc(Cl)cc(Cl)c1	> 100 µM	> 100 µM		64 µM	28.2 µM	> 100 µM	> 100 µM		66.5 µM											
C/C=C1/CCC2c3[nH]c4ccccc4c3CCN2C1 (centres undefined)	> 100 µM	> 100 µM		86.6 µM	> 100 µM	> 100 µM	> 100 µM	> 100 µM	> 100 µM											
O=C(Nc1ccc2[nH]c(=S)sc2c1)Nc1ccccc1F	14.6 µM	> 100 µM	> 100 µM		38.4 µM	> 100 µM	> 100 µM	> 100 µM	> 100 µM	2.71 µM	26.7 µM		37.6 µM	> 100 µM	10.3 µM	56.4 µM	28.8 µM	26.7 µM	41.9 µM	30.6 µM
O=C(NCCCCCCNC(=O)OCCSCCn1cc(C(=O)NC(=O)OCc2ccccc2)c(=O)[nH]c1=O)OCCSCCn1cc(C(=O)NC(=O)OCc2ccccc2)c(=O)[nH]c1=O	> 100 µM	> 100 µM	> 100 µM	> 100 µM	> 100 µM	> 100 µM	> 100 µM	> 100 µM	> 100 µM											
COc1ccc(CC(=O)NCCc2ccc(OC)c(OC)c2)cc1Br	> 100 µM	> 100 µM	> 100 µM	> 100 µM	> 100 µM	> 100 µM	> 100 µM	> 100 µM	> 100 µM											
C=C1C(=O)OC2C=C(CCC(C)=O)C(C)C(OC(C)=O)CC12 (centres undefined)	23.6 µM	12.4 µM	21.5 µM	12.9 µM		29.6 µM	40.2 µM	27.9 µM	32.1 µM											
Cc1ccc(NC(=O)C(=O)CC(=O)c2c(C)n([O-])c3ccccc3[n+]2=O)cc1	> 100 µM	49 µM	> 100 µM	> 100 µM	46.1 µM	> 100 µM	> 100 µM	53 µM	> 100 µM											
CC(C)(CN1CCCCC1)C(=O)/C=C/c1ccc(Cl)cc1		7 µM	26.3 µM	4.64 µM	9.9 µM	23.5 µM	11.3 µM		7.24 µM											
CN(C)CCCN1c2ccccc2C(C)(C)c2ccccc21	25.5 µM	53.5 µM		31.6 µM	28.6 µM	27.2 µM	32.9 µM	30.1 µM	27.9 µM					43.3 µM						
CCOC(=O)/C(=C\c1cccs1)P(=O)(OCC)OCC	35.4 µM	> 100 µM	33.1 µM	84.5 µM	28.4 µM	45.8 µM	> 100 µM	38.1 µM	45.9 µM											
Cc1cc(NS(=O)(=O)c2ccc(NC(=O)c3ccc(Cl)c4c(Nc5ccc(S(=O)(=O)N=C(N)N)cc5)c5ccccc5nc34)cc2)no1		67.2 µM	41.6 µM		61.6 µM	> 100 µM	> 100 µM		> 100 µM											
C[N+]1(C)C/C(=C\c2ccccc2)C(=O)/C(=C/c2ccccc2)C1		> 100 µM	> 100 µM	> 100 µM		> 100 µM	> 100 µM		73.2 µM											
CCCC/C=C1\CCC(C)(CN(C)C)C1=O (centres undefined)	> 100 µM	> 100 µM	> 100 µM	> 100 µM	75.9 µM	> 100 µM	> 100 µM	> 100 µM	> 100 µM											
COc1ccccc1C1c2cc3c(cc2OC(O)(CO)C1C(=O)O)OCO3 (centres undefined) (tested in a mixture with another compound)		> 100 µM	> 100 µM	> 100 µM		> 100 µM	> 100 µM	> 100 µM	> 100 µM											

Reference: PubChem BioAssay (NCI)
